The source of these data is patent publication US9265922B2, “System and method for improving outcome of cerebral ischemia” (ASTUCE, INC., priority 2012, dated 2016).

One series has as its system intubated rodents. The series can be described thus: Cerebral blood flow by cortical laser Doppler during intranasal nitric oxide in intubated rodents. Type of series: in vivo. As for the experimental part: (§1) In intubated rodents, the inventors have shown that cerebral blood flow increases by 100% within 60 minutes of intranasal nitric oxide delivery.
Series [1] relates to humans (normal volunteers). As to the kind of experiment: Tolerability of intranasal nitric oxide in normal volunteers. It is filed as in vivo, human. The following applies: high concentration, delivered intra-nasally and without inhalation. The source says: While nitric oxide may be given intranasally and without inhalation into the lungs to intubated, comatose individuals the tolerability of intranasal nitric oxide in awake humans has not previously been investigated. The inventors have tested the effect of nitric oxide in humans (normal volunteers) during intranasal delivery. […] Therefore it can easily be tolerated by awake, non-intubated patients.

The subject of series [2] is carotid artery occlusion model. As to the kind of experiment: Carotid artery occlusion model, Speckle laser Doppler, intranasal nitric oxide. Type of series: in vivo, rodents. How it is done: as §1
Increase in cerebral blood flow is attributable to focal intranasal or intra-oral effect of nitric oxide rather than to systemic absorption of the gas. […] The effect on cerebral blood flow during intranasal delivery of nitric oxide with concomitant air inhalation into the lungs is therefore a focal effect on intranasal and intracranial vasculature attributable specifically to nitric oxide. […] In a non-intubated patient, nitric oxide inhalation can be prevented by occluding the nasal cavity anterior or posterior to the site of gas delivery. This is achieved by means of an anterior occlusion device such a rigid member, an expandable member, a compressible member, a sponge, a porous member, a plug, a balloon, foam and/or combinations of the foregoing, which prevent inhalation through the nostrils while maintaining a high concentration of nitric oxide in the nasal cavity. A non-intubated patient may be allowed to inhale air into the lungs during nitric oxide delivery into the nasal cavity by an optional central lumen with the distal orifice beyond the sites of nasal gas delivery and occlusion device.

Series [3] has as its system patients with cerebral ischemia. As to the kind of experiment: CT perfusion scanning in intubated patients with cerebral ischemia before and after intranasal nitric oxide. Type of series: in vivo, human.

The structures appear in SMILES notation. “Also recorded” adds a separate entry of the source.

For the compound `[N]=O` [nitric oxide], in the series with intubated rodents (during intranasal administration), the “cerebral blood flow (FIG. 8, cortical laser Doppler)” value is “doubling of cerebral blood flow”. Besides, the “cerebral blood flow increase” value in the series on intubated rodents (within 60 minutes of intranasal non-inhaled nitric oxide delivery) is recorded as 100%. In addition, the “tolerability of gas treatment” value in series [1] is recorded as “tolerated”. Besides, in series [2] (both during the carotid occlusion and following ligature release (FIG. 9)), the “perfusion in the ischemic hemisphere” value is on record as “improved”. The “cerebral ischemia (FIG. 9, Speckle laser Doppler tracing)” value in series [2] (intubated rodents given intranasal nitric oxide) is “reduction of cerebral ischemia”. In series [3] (Post Rx versus Pre Rx, left ischemic hemisphere), the “increase in perfusion on L (Cerebral Blood Flow, ACA Watershed)” value stood at 67% increase in. For the same compound, the “Mean Transit Time, Changes in ACA Watershed” value in series [3] (Post Rx, Pre Rx 4 sec delay) is given as “Normalization”. Moreover, the “Cerebral Blood Flow, Changes in ACA Watershed” value in series [3] (Post Rx, Pre Rx 37% lower on ischemic side) is “Normalization,”. Further, the “cerebral perfusion by CT perfusion scanning” value in series [3] (intubated patients with cerebral ischemia, during treatment with intranasal nitric oxide (FIGS. 10, 11)) is “improvement in cerebral perfusion; also recorded: augmentation of cerebral perfusion and normalization of regional perfusion abnormalities”.
